Active and inactive are the calls of the source. The rule behind the calls is not given here.
Legend:
[1] = Increase in C20:0/C16:0 LPC level in ABCD1 knock out mouse CNS at 1 mg/kg, po qd measured after 3 months of dosing by LC-MS/MS analysis; assay type: functional; conditions: 2190 h
[2] = Intrinsic clearance in rat hepatocytes assessed per million cells; assay type: ADME, cell-based, Hepatocyte; conditions: read-out: CLH
Mus musculus [3] = assay: Reduction in C26:0 LPC level in ABCD1 KO mouse blood administered orally qd for 105 days by LC-MS/MS analysis; assay type: functional, tissue-based; conditions: route po, time 105.0 day, DDE = dose-dependent effect
[4] = AUC (infinity) in Sprague-Dawley rat at 3 mg/kg, po upto 24 hrs by LC/MS/MS analysis; assay type: ADME, organism-based; parameters: dose 3 mg/kg, time < 24 hrs, route po; conditions: in vivo
[5] = Toxicity in Cynomolgus monkey assessed as skin inflammatory infiltrates at 5 to 50 mg/kg/day, po administered for 14 days by microscopic observation analysis; assay type: organism-based, Macaca fascicularis; conditions: in vivo, 336 h, dose 5-50 mg/kg/day, time 14 day
[6] = Toxicity in Cynomolgus monkey assessed as adverse skin lesions at 20 to 50 mg/kg/day, po administered for 14 days; assay type: organism-based, Macaca fascicularis; conditions: in vivo, 336 h, dose 20-50 mg/kg/day, time 14 day
[7] = Increase in C20:0/C16:0 total VLCFA levels in ABCD1 knock out mouse CNS at 1 to 10 mg/kg, po qd measured after 3 months of dosing by LC-MS/MS analysis; assay type: functional; conditions: dose 1-10 mg/kg, 2190 h
[8] = Toxicity in Cynomolgus monkey assessed as dry and red scaly areas on abdomen at 5 to 50 mg/kg/day, po administered for 14 days by macroscopic observation analysis; assay type: organism-based, Macaca fascicularis; conditions: in vivo, 336 h, dose 5-50 mg/kg/day, time 14 day
[9] = AUC (infinity) in Cynomolgus monkey at 3 mg/kg, po upto 24 hrs by LC/MS/MS analysis; assay type: ADME, organism-based, Macaca fascicularis; parameters: dose 3 mg/kg, time < 24 hrs, route po; conditions: in vivo
[10] = Oral bioavailability in Cynomolgus monkey at 3 mg/kg upto 24 hrs by LC/MS/MS analysis; assay type: ADME, organism-based, Macaca fascicularis; conditions: in vivo
[11] = target: T1, Very long chain fatty acid elongase 4 (Homo sapiens, UniProt Q9GZR5); assay: Inhibition of ELOVL4 (unknown origin) in presence of C26-acyl-CoA by radiometric enzyme assay
T1 sequence (Q9GZR5 whole entry): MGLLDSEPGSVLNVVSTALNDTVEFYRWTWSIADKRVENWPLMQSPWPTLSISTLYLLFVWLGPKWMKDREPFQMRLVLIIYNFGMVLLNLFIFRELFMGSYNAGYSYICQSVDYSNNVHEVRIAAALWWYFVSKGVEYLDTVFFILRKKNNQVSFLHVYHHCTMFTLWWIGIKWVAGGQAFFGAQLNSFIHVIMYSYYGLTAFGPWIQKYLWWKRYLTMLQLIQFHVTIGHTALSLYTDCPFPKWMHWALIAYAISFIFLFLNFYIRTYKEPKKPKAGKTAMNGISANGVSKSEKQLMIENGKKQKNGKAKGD

[12] = Toxicity in Cynomolgus monkey assessed as minimal focal gliosis at 20 to 50 mg/kg/day, po administered for 14 days; assay type: organism-based, Macaca fascicularis; conditions: in vivo, 336 h, dose 20-50 mg/kg/day, time 14 day
[13] = target: T2, Very long chain fatty acid elongase 1 (Homo sapiens, UniProt Q9BW60); assay: Inhibition of ELOVL1 in AMN 1 patient-derived fibroblast assessed as reduction of C26:0 VLCFA synthesis incubated for 48 hrs by cellular assay; assay type: cell-based
T2 sequence (Q9BW60 whole entry): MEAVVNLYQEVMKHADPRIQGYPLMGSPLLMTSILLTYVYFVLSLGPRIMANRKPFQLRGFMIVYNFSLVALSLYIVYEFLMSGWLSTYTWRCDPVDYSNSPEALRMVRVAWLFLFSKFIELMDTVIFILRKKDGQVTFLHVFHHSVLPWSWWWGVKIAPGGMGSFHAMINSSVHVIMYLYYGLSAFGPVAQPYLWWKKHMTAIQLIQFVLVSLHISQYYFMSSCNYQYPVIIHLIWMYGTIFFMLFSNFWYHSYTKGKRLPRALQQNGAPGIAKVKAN

[14] = target: T2, Very long chain fatty acid elongase 1; assay: Inhibition of ELOVL1 in Het […] 2 patient-derived human lymphocyte assessed as reduction of C26:0 VLCFA synthesis incubated for 48 hrs by cellular assay; assay type: cell-based
[15] = Toxicity in juvenile Sprague-Dawley rat assessed as clonic convulsions 5 to 75 mg/kg/day, po treatment started from postnatal day 75 to 114 days measured after cessation of dosing; assay type: organism-based; conditions: in vivo, dose lower 5 mg/kg/day, time lower 75 day, dose upper 75 mg/kg/day, time upper 114 day
[16] = Toxicity in telemetry-implanted Cynomolgus monkey assessed as higher baseline beta EEG activity at 5 to 20 mg/kg/day,NG administered for 7 days; assay type: organism-based, Macaca fascicularis; conditions: in vivo, po, 168 h, dose 5-20 mg/kg/day, time 7 day
Fibroblast = assay: Reduction in C26:0/C16:0 lysophosphatidyl choline levels in primary human CALD patient-derived fibroblast incubated for 48 hrs; assay type: functional, cell-based
[17] = Toxicity in Cynomolgus monkey assessed as neurological signs of convulsions at 50 mg/kg/day, po administered for 14 days; assay type: organism-based, Macaca fascicularis; conditions: in vivo, 336 h, time 14 day
[18] = Toxicity in Sprague-Dawley rat assessed as corneal abnormalities at 5 mg/kg/day, po administered for 8 weeks measured after cessation of dosing; assay type: organism-based; conditions: in vivo, 1344 h
[19] = Toxicity in Sprague-Dawley rat assessed as adverse effects at 5 to 50 mg/kg/day, po administered for 8 weeks and measured after cessation dosing by long-term safety study; assay type: organism-based; conditions: in vivo, 1344 h, dose 5-50 mg/kg/day
HepG2 = assay: Cytotoxicity against human HepG2 cells assessed as decrease in intracellular ATP levels incubated for 72 hrs by Cell Titer-Glo luminescence assay; assay type: functional; conditions: read-out: TC50 (the source's name)
[20] = Toxicity in Cynomolgus monkey assessed as dry and red scaly areas on thorax at 5 to 50 mg/kg/day, po administered for 14 days by macroscopic observation analysis; assay type: organism-based, Macaca fascicularis; conditions: in vivo, 336 h, dose 5-50 mg/kg/day, time 14 day
[21] = target: T3, Very long chain fatty acid elongase 1 (Homo sapiens) (UniProt Q9BW60); assay: Inhibition of ELOVL-1 in human HEK2936E cells assessed as reduction in C24:0 lysophosphatidyl choline synthesis at 100 nM in presence of 13C-labeled acetate measured after 48 hrs; assay type: cell-based
T3 sequence (whole entry): T2 sequence (Q9BW60 whole entry)

[22] = Toxicity in juvenile Sprague-Dawley rat assessed as ocular inflammation at 5 to 75 mg/kg/day, po treatment started from postnatal day 18 to 114 days; assay type: organism-based; conditions: in vivo, dose lower 5 mg/kg/day, time lower 18 day, dose upper 75 mg/kg/day, time upper 114 day
[23] = Volume of distribution at steady state in mouse at 1 mg/kg, iv upto 48 hrs by LC/MS/MS analysis; assay type: ADME, organism-based; conditions: in vivo, read-out: Vdss
[24] = target: Rho-associated protein kinase 2 (Homo sapiens) (UniProt O75116); assay: Inhibition of ROCK 2 (unknown origin) at 10 uM
Mus musculus [25] = assay: Reduction in C26:0/C16:0 LPC level in ABCD1 knock out mouse CNS at 1 to 10 mg/kg, po qd measured after 2 months of dosing by LC-MS/MS analysis; assay type: functional, organism-based; conditions: dose 1-10 mg/kg
[26] = Toxicity in Sprague-Dawley rat assessed as corneal neovascularization at 5 mg/kg/day, po administered for 8 weeks by macroscopic observation analysis; assay type: organism-based; conditions: in vivo, 1344 h
[27] = Toxicity in Cynomolgus monkey assessed as skin lesions at 1 mg/kg/day, po observed from 8 to 13 weeks; assay type: organism-based, Macaca fascicularis; conditions: in vivo, time 8-13 weeks

Rho-associated protein kinase 2 (Homo sapiens), sequence (O75116 whole entry, looked up): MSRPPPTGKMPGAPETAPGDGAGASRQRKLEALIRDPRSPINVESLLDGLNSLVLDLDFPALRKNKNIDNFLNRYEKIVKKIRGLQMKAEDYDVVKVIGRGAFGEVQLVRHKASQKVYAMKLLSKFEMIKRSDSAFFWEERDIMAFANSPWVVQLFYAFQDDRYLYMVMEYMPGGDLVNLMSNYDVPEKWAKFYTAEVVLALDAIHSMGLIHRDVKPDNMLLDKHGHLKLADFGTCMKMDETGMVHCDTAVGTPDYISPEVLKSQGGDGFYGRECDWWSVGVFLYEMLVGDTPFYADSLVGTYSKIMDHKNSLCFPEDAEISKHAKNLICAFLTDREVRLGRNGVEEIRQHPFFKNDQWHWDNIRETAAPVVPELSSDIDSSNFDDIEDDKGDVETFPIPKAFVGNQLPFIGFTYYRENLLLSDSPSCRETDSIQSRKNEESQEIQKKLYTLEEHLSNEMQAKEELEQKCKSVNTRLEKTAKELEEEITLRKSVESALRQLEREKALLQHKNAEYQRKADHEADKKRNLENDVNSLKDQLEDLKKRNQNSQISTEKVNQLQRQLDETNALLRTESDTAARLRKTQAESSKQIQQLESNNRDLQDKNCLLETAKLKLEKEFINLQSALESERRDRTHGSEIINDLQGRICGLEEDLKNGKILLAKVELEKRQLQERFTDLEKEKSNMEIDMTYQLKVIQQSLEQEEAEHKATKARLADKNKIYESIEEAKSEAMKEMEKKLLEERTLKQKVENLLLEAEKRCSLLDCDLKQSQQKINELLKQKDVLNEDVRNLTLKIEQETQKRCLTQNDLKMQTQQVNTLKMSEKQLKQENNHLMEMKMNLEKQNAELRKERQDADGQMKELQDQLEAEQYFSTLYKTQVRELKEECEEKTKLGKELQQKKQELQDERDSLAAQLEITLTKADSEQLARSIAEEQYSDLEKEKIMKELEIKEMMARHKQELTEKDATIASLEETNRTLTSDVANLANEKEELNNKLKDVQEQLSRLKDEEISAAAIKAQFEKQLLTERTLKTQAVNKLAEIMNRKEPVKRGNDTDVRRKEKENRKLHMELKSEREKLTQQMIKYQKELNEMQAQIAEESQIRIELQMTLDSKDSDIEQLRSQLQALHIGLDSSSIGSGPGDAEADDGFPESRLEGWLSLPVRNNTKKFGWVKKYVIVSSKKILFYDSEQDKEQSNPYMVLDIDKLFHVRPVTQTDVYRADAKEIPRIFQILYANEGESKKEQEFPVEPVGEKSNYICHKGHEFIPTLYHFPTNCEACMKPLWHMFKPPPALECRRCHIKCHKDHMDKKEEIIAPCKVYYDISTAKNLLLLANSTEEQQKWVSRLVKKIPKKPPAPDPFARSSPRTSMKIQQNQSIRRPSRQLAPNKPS

O=C(Nc1ccn(-c2ccnc(F)c2)n1)C1(c2ccccc2F)CC1
Activity [1]: 18% | hepatocyte CLint [2]: 14 µL/min/1e6 cells | Activity (Mus musculus [3]): Dde | AUC [4]: 0.442 µg·h/mL | Activity [5]: Toxic | Activity [6]: Toxic | Activity [7]: <6% | Activity [8]: Toxic | AUC(0-inf) [9]: 7.7 µg·h/mL | bioavailability [10]: 100% | IC50 [11]: > 200 µM | Activity [12]: Toxic | IC50 [13]: 0.043 µM | IC50 [14]: 0.009 µM | Activity [15]: Toxic | Activity [16]: Toxic | Activity (Fibroblast): Active | Activity [17]: Toxic | Activity [18]: Toxic | Activity [19]: Non-Toxic | CC50 (HepG2): > 100 µM | Activity [20]: Toxic | inhibition [21]: Active | Activity [22]: Toxic | Vd [23]: 2.6 L/kg | inhibition [24]: > 50% | Activity (Mus musculus [25]): Active | Activity [26]: Toxic | Activity [27]: Non-Toxic

From ChEMBL document CHEMBL5131397, “Discovery and Optimization of Pyrazole Amides as Inhibitors of ELOVL1” (J Med Chem, 2021)
